{"source": "PubChem BioAssay (NCI)", "assay_in_all_cases": "NCI tumour cell line growth inhibition, 48 h", "key": {"SN12K1 renal": {"system": "SN12K1 renal"}, "DMS 114 small cell lung": {"system": "DMS 114 small cell lung"}, "DMS 273 small cell lung": {"system": "DMS 273 small cell lung"}, "DLD-1 colon": {"system": "DLD-1 colon"}, "P388/ADR leukemia": {"system": "P388/ADR leukemia"}, "KM20L2 colon": {"system": "KM20L2 colon"}, "HOP-92 NSCLC": {"system": "HOP-92 NSCLC"}, "UACC-257 melanoma": {"system": "UACC-257 melanoma"}, "SNB-78 CNS": {"system": "SNB-78 CNS"}, "NCI-H23 lung": {"system": "NCI-H23 lung"}, "P388 leukemia": {"system": "P388 leukemia"}, "HOP-18 NSCLC": {"system": "HOP-18 NSCLC"}, "XF 498 CNS": {"system": "XF 498 CNS"}, "BT-549 breast": {"system": "BT-549 breast"}, "M19-MEL melanoma": {"system": "M19-MEL melanoma"}, "NCI-H226 lung": {"system": "NCI-H226 lung"}}, "note": "Where “and” joins values, the source holds several entries; their conditions need not be identical. Equal values may be shown once.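 How tested: cells in 96-well plates exposed to compound for 48 hours at five concentrations. Abbreviation: GI50, concentration required for 50% inhibition of growth. TGI marks complete inhibition of growth.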"}
{"smiles": "COc1ccc(CC2C(=O)NC(C)C(=O)N(C)C3C(=O)N(C)C(Cc4ccc(O)c(c4)Oc4ccc(cc4)C3O)C(=O)NC(C)C(=O)NC(C)C(=O)N2C)cc1", "note": "(centres undefined)", "values": [{"measurement": "GI50", "setting": "SN12K1 renal", "value": 13.5, "unit": "nM"}, {"measurement": "TGI", "setting": "SN12K1 renal", "value": "32.1 nM and 34.2 nM"}, {"measurement": "GI50", "setting": "DMS 114 small cell lung", "value": 12.8, "unit": "nM"}, {"measurement": "TGI", "setting": "DMS 114 small cell lung", "value": "20.6 nM and 42.8 nM"}, {"measurement": "GI50", "setting": "DMS 273 small cell lung", "value": 21.5, "unit": "nM"}, {"measurement": "TGI", "setting": "DMS 273 small cell lung", "value": "117 nM and 52.2 nM"}, {"measurement": "GI50", "setting": "DLD-1 colon", "value": 40.9, "unit": "nM"}, {"measurement": "TGI", "setting": "DLD-1 colon", "value": "3450 nM and 581 nM"}, {"measurement": "TGI", "setting": "P388/ADR leukemia", "value": "8520 nM and 12700 nM"}, {"measurement": "TGI", "setting": "KM20L2 colon", "value": "350 nM and 471 nM"}, {"measurement": "GI50", "setting": "HOP-92 NSCLC", "value": 3.03, "unit": "nM"}, {"measurement": "TGI", "setting": "HOP-92 NSCLC", "value": "28.3 nM and 91.8 nM and 26.9 nM"}, {"measurement": "GI50", "setting": "UACC-257 melanoma", "value": 16, "unit": "nM"}, {"measurement": "TGI", "setting": "UACC-257 melanoma", "value": "66.3 nM and 32 nM"}, {"measurement": "GI50", "setting": "SNB-78 CNS", "value": 12.5, "unit": "nM"}, {"measurement": "TGI", "setting": "SNB-78 CNS", "value": "41.1 nM and 26.4 nM"}, {"measurement": "GI50", "setting": "NCI-H23 lung", "value": 7.11, "unit": "nM"}, {"measurement": "TGI", "setting": "NCI-H23 lung", "value": "55.7 nM and 34.1 nM"}, {"measurement": "GI50", "setting": "P388 leukemia", "value": 14.9, "unit": "nM"}, {"measurement": "TGI", "setting": "P388 leukemia", "value": "79.2 nM and 175 nM"}, {"measurement": "GI50", "setting": "HOP-18 NSCLC", "value": 18.4, "unit": "nM"}, {"measurement": "TGI", "setting": "HOP-18 NSCLC", "value": "43.5 nM and 40.1 nM"}, {"measurement": "GI50", "setting": "XF 498 CNS", "value": 2.38, "unit": "nM"}, {"measurement": "TGI", "setting": "XF 498 CNS", "value": "17.9 nM and 31.3 nM"}, {"measurement": "TGI", "setting": "BT-549 breast", "value": 10, "unit": "nM"}, {"measurement": "GI50", "setting": "M19-MEL melanoma", "value": 7.08, "unit": "nM"}, {"measurement": "TGI", "setting": "M19-MEL melanoma", "value": "130 nM and 54.3 nM"}, {"measurement": "GI50", "setting": "NCI-H226 lung", "value": 12.5, "unit": "nM"}, {"measurement": "TGI", "setting": "NCI-H226 lung", "value": "23.8 nM and 25.7 nM"}]}
